Paper PMC10104807, “Modulation of tau tubulin kinases (TTBK1 and TTBK2) impacts ciliogenesis” (Scientific Reports, 2023)
Values joined by “and” are separate entries in the source; they are usually repeats but may differ in a detail not shown here. Equal entries are not always repeated. Where two headings read alike, the source gives them in different places.

What was measured:
Test in all cases: Eurofins enzymatic radiometric kinase assay
Assay type in all cases: biochemical
PAK5 = molecular target: T1, PAK5 (Homo sapiens, UniProt Q9P286); conditions: ATP at Km, duplicate
T1 construct: purchased Eurofins (radiometric) / Eurofins DiscoverX scanMAX / Reaction Biology / SignalChem
Experimental: (§1) The column labeled “# < 10 PoC in enzyme panel” in Table 1 reports the number of kinases in this 17-member panel inhibited > 90% by each analog.
(§2) Details about the substrate used, protein constructs, controls, and assay protocol for these kinase assays are available at the Eurofins website: https://www.eurofinsdiscoveryservices.com. Reaction Biology Corp. (RBC) radiometric HotSpot kinase assays were carried out at the Km value for ATP in dose–response (10-pt curve) format for MYLK4, RIPK5, and YSK4 in Table S2. Details about the substrate used, protein constructs, controls, and assay protocol for these kinase assays are available at the RBC website: https://www.reactionbiology.com/list-kinase-targets-us-facility. SignalChem developed an ADP-Glo assay to test for enzymatic inhibition of PIKfyve in dose–response (10-pt curve) format in duplicate.

TAOK3 = molecular target: T2, TAOK3 (Homo sapiens, UniProt Q9H2K8); conditions: ATP at Km, duplicate
T2 construct: purchased Eurofins (radiometric) / Eurofins DiscoverX scanMAX / Reaction Biology / SignalChem
T2 sequence (Q9H2K8 1-898): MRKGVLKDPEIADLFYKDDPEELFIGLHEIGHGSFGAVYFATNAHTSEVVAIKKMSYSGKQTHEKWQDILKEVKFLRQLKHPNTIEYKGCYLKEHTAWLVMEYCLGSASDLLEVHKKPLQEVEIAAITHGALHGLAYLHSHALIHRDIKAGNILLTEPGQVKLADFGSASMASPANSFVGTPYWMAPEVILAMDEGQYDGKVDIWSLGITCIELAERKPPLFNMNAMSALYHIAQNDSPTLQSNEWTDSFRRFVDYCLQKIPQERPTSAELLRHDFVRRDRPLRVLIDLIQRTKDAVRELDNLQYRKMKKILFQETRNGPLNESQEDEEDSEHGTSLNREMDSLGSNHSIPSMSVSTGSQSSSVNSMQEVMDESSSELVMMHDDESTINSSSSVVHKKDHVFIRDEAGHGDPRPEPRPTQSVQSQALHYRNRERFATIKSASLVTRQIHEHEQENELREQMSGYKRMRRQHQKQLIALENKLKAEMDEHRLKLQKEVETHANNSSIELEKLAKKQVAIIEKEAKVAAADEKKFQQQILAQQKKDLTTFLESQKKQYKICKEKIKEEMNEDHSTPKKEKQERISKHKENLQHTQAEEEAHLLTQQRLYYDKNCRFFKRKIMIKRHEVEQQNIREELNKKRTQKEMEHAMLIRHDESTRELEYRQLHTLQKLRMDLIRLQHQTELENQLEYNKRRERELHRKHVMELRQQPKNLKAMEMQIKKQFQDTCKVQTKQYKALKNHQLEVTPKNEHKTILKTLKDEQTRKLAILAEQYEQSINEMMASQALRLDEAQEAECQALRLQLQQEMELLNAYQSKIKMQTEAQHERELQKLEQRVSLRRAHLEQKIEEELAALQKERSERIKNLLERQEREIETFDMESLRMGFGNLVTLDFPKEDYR
Experimental: as §1, §2

PAK3 = molecular target: T3, PAK3 (Homo sapiens, UniProt O75914); conditions: ATP at Km, duplicate
T3 construct: purchased Eurofins (radiometric) / Eurofins DiscoverX scanMAX / Reaction Biology / SignalChem
Experimental: as §1, §2

TSSK4 = molecular target: T4, TSSK4 (Homo sapiens, UniProt Q6SA08); conditions: ATP at Km, duplicate
T4 construct: purchased Eurofins (radiometric) / Eurofins DiscoverX scanMAX / Reaction Biology / SignalChem
T4 sequence (Q6SA08 1-328): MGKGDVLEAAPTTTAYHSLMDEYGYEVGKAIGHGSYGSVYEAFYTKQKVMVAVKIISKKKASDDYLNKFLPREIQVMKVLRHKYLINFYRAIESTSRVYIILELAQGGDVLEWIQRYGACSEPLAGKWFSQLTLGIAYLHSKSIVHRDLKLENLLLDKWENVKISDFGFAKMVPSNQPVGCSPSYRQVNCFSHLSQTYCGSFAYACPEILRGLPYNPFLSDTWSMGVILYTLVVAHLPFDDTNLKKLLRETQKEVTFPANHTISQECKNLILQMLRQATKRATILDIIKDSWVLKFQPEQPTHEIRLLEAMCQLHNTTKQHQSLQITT
Experimental: as §1, §2

PAK6 = molecular target: T5, PAK6 (Homo sapiens, UniProt Q9NQU5); conditions: ATP at Km, duplicate
T5 construct: purchased Eurofins (radiometric) / Eurofins DiscoverX scanMAX / Reaction Biology / SignalChem
Experimental: as §1, §2

TSSK2 = molecular target: T6, TSSK2 (Homo sapiens, UniProt Q96PF2); conditions: ATP at Km, duplicate
T6 construct: purchased Eurofins (radiometric) / Eurofins DiscoverX scanMAX / Reaction Biology / SignalChem
T6 sequence (Q96PF2 1-358): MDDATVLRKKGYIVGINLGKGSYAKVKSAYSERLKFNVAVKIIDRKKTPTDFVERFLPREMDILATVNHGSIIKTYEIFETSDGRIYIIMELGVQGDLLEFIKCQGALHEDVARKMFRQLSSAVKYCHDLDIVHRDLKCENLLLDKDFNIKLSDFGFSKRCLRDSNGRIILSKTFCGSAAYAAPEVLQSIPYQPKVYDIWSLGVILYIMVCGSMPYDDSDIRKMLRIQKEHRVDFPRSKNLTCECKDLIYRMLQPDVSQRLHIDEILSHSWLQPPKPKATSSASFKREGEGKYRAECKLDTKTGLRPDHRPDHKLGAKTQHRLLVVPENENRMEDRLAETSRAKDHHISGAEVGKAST
Experimental: as §1, §2

MARK4 = molecular target: T7, MARK4 (Homo sapiens, UniProt Q96L34); conditions: ATP at Km, duplicate
T7 construct: purchased Eurofins (radiometric) / Eurofins DiscoverX scanMAX / Reaction Biology / SignalChem
T7 sequence (Q96L34 1-752): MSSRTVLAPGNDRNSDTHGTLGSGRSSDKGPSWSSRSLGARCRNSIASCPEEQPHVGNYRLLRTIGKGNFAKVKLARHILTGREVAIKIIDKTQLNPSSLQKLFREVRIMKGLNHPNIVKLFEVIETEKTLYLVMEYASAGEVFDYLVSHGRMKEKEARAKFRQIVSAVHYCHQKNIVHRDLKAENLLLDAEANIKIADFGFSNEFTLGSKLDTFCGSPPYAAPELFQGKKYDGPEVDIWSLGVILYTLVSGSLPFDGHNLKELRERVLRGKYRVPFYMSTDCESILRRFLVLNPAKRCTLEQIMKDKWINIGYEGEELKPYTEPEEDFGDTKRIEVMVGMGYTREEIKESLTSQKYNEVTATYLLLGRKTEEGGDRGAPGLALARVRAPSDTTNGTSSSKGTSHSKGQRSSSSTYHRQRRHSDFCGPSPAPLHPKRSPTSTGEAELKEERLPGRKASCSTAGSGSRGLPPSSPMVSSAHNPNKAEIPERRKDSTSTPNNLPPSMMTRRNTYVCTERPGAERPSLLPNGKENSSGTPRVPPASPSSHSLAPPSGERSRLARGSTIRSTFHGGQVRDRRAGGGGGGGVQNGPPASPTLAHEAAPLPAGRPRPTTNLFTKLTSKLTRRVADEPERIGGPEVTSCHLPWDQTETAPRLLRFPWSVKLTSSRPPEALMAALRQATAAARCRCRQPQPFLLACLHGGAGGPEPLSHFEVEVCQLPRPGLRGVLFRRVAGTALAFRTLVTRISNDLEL
Experimental: as §1, §2

TTBK1 = molecular target: T8, TTBK1 (Homo sapiens, UniProt Q5TCY1); conditions: for TTBK1 PoC: 1 μM, duplicate, lower = greater inhibition
T8 construct: purchased Eurofins
Experimental: as §1, §2

T1 sequence (Q9P286 whole entry): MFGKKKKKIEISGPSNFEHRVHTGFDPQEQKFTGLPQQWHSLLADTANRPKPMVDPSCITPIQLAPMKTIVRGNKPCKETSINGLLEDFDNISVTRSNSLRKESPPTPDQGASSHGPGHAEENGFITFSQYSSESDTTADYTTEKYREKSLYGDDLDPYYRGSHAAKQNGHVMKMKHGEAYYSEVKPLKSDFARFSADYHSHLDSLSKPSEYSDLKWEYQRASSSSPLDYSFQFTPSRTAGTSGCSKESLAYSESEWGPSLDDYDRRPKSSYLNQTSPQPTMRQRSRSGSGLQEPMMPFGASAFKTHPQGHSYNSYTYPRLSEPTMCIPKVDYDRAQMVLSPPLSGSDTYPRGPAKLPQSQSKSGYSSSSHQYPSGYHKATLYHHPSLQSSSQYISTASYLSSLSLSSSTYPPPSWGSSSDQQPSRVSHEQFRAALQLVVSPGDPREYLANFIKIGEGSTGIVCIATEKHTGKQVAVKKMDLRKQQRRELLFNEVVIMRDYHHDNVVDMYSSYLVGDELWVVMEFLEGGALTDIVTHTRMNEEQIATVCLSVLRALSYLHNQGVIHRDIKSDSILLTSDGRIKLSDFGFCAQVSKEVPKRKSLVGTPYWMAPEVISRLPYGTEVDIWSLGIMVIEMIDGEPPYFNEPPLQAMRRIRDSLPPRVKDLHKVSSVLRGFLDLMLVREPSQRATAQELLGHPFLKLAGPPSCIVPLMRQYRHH
T3 sequence (O75914 whole entry): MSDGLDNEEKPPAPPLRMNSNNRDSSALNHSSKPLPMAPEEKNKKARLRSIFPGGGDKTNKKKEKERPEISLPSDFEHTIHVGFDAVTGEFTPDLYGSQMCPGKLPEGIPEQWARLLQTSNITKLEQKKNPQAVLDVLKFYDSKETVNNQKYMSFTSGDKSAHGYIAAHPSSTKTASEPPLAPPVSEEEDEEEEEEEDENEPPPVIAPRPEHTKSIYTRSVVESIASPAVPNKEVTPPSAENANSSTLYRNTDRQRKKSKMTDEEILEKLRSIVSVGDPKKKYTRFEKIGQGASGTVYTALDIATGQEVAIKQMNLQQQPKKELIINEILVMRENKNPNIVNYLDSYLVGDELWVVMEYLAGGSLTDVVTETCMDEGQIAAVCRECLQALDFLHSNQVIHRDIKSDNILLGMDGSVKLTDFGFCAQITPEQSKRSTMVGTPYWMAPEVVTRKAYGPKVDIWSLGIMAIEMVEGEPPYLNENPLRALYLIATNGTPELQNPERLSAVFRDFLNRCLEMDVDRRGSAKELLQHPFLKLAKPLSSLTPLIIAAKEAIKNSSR
T8 sequence (Q5TCY1 whole entry): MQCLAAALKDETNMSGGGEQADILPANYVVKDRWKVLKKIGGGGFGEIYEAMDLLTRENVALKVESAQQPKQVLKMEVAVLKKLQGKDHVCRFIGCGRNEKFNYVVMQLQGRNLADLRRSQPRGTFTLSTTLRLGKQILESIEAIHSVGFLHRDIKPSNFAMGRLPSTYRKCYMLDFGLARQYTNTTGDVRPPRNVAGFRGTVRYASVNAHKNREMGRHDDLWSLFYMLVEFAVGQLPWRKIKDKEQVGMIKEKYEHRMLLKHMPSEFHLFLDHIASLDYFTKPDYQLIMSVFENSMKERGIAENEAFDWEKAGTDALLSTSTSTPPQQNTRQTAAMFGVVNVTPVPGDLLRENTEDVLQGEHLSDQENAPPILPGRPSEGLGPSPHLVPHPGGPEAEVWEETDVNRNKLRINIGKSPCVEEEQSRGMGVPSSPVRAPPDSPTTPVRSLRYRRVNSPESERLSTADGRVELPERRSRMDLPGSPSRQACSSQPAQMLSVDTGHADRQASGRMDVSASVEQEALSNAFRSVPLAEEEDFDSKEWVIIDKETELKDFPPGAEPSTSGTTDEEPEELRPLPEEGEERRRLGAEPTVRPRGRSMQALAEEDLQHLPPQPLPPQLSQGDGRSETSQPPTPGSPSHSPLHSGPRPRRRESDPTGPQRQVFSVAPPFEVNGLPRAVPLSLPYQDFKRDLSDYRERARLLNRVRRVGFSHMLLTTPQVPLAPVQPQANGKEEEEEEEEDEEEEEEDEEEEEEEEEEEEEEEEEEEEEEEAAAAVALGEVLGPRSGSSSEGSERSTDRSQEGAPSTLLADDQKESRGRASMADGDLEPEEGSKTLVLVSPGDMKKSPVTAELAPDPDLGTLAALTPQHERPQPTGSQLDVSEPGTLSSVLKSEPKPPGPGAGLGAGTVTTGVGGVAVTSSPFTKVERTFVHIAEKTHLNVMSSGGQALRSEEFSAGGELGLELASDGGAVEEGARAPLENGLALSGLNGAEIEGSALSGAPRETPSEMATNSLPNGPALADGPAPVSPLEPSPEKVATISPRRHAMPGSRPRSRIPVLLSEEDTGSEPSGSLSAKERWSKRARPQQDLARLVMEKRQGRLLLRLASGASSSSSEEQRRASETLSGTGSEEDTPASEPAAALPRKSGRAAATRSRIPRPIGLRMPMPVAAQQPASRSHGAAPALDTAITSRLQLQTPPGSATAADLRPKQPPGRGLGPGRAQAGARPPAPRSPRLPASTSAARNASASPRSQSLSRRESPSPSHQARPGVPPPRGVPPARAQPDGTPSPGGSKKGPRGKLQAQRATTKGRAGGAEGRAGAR
T5 sequence (Q9NQU5 whole entry): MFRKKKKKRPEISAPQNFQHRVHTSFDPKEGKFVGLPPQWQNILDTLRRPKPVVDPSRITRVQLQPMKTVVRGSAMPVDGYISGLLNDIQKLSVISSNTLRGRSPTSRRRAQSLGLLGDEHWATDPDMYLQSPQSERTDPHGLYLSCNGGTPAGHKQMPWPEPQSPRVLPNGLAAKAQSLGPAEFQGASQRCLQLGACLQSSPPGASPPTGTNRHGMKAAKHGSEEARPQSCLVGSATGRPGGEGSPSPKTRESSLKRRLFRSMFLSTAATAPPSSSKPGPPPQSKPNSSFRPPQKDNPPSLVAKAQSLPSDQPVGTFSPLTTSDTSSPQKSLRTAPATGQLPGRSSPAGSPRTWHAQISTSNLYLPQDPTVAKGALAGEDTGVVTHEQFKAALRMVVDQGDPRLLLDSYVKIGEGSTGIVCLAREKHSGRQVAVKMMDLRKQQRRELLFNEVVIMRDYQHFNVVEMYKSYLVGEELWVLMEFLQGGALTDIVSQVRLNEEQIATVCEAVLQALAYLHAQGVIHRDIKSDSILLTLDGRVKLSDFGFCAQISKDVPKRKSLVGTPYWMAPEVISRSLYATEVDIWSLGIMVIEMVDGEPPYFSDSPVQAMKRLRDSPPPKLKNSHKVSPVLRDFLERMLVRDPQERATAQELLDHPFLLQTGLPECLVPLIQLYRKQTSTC

Structure (SMILES)	PAK5 PoC at 1 μM (PAK5) [PoC]	TAOK3 PoC at 1 μM (TAOK3) [PoC]	PAK3 PoC at 1 μM (PAK3) [PoC]	TSSK4 PoC at 1 μM (TSSK4) [PoC]	PAK6 PoC at 1 μM (PAK6) [PoC]	TSSK2 PoC at 1 μM (TSSK2) [PoC]	MARK4 PoC at 1 μM (MARK4) [PoC]	TTBK1 PoC (TTBK1; ATP at Km)	IC50 (TTBK1) [µM]	IC50 (TTBK1; ATP at Km, dose–response 9-pt curve) [µM]
CC(C)(O)C#Cc1ccc2[nH]c3c(c2c1)-c1nc(N)ncc1CCCC3 [Compound 2]	87	78	100	77	77	76	86	92 PoC and 92/NT^[c] PoC	–	–
CC(C)(O)C#Cc1ccc2[nH]cc(-c3ccnc(N)n3)c2c1 [Compound 3]	31	20	104	78	40	78	43	43 PoC	–	–
CC(C)(O)C#Cc1ccc2[nH]c3c(c2c1)-c1nc(N)ncc1CC3 [Compound 1]	48	11	86	55	51	88	53	78 PoC	> 1	3.14
CC(C)(O)C#Cc1ccc2[nH]c3c(c2c1)-c1nc(N)ncc1CCC3 [AMG28, reference compound]	3	9	86	70	6	57	18	–	–	–
COC(C)(C)C#Cc1ccc2[nH]c3c(c2c1)-c1nc(N)ncc1CCC3 [Compound 11]	88	89	100	101	92	86	103	117 PoC and 117/NT PoC	–	–
